Data reported in patent US9682962B2, “Pyrazolyl pyrimidinamine compound and application thereof” (SHENYANG SINOCHEM AGROCHEMICALS R&D CO., LTD., priority 2013, dated 2017).

Experiments:
[1] = system: cucumber anthracnose; experiment: Protectant activity in vivo (whole plant), cucumber anthracnose; settings: 400 mg/L; protectant activity
Procedure: (§1) The method is as followed: The whole plant is used in this test. The compound is dissolved in a proper solvent to get mother solution. The proper solvent is selected from acetone, methanol, DMF and so on according to their dissolving capability to the sample. […] The testing solution is sprayed to the host plant by a special plant sprayer. The plant is inoculated with fungus after 24 hours. According to the infecting characteristic of fungus, the plant is stored in a humidity chamber and then transferred into greenhouse after infection is finished. And the other plants are placed in greenhouse directly.

[2] = system: Green peach aphids (Myzus Persicae Sulzer); experiment: Bioactivity test against green peach aphid (airbrush foliar spray); assay type: in vivo
Procedure: (§2) Compounds were dissolved in mixed solvent (acetone:methanol=1:1), and diluted to required concentration with water containing 0.1% of tween 80.
(§3) Diamond back moth, armyworm, peach aphid and carmine spider mite were used as targets and the method of spraying by airbrush was used for determination of insecticidal bioassays.
Method: Filter papers were put in culture dishes (Diameter=6 cm), and water was dripped on filter papers for preserving moisture. Green peach aphids (Myzus Persicae Sulzer) were maintained on cabbage. Leaves (Diameter=3 cm) of approximately 15-30 aphids were put in the culture dishes. Bioactivity tests were used the method of Airbrush Foliar Spray, pressure=10 psi (0.7 kg/cm2), spray volume=0.5 mL. The studies were conducted at […] 25±1 C in incubator cabinets with 60±5% RH. Survey the survival aphids after 48 h and calculate the death rates.

[3] = system: cucumber downy mildew; experiment: Protectant activity in vivo (whole plant), cucumber downy mildew; settings: for control effect against cucumber downy mildew(%): protectant activity
Procedure: as §1

[4] = system: diamond back moth; experiment: Bioactivity test against diamond back moth (airbrush spray); assay type: in vivo; settings: for control against diamond back moth (mortality): after 72 h
Procedure: as §2, §3
The method of spraying by airbrush: The cabbage leaves were made into plates of 2 cm diameter by use of punch. A test solution (0.5 ml) was sprayed by airbrush at the pressure of 0.7 kg/cm^2 to both sides of every plate. 10 Second instar larvae were put into the petri-dishes after the leaf disc air-dried and 3 replicates were set for each treatment. Then the insects were maintained in observation room (25° C., 60˜70% R.H.). Scores were conducted and mortalities were calculated after 72 h.

[5] = system: wheat powdery mildew; experiment: Protectant activity in vivo (whole plant), wheat powdery mildew; settings: protectant activity
Procedure: as §1

[6] = system: cucumber gray mold; experiment: Fungicidal activity in vitro (96-cell culture board), cucumber gray mold; assay type: cell-based; settings: read-out: inhibition rate against cucumber gray mold
[7] = system: corn rust; experiment: Protectant activity in vivo (whole plant), corn rust; settings: 1.6 ppm
Procedure: as §1

[8] = system: carmine spider mite; experiment: Bioactivity test against carmine spider mite (airbrush spray); assay type: in vivo; settings: after 72 hrs
Procedure: as §2, §3
The method: shoots with two true leaves in pot were taken, the healthy adults of carmine spider mite were inoculated to the leaves. The adults were counted and then sprayed with airbrush at the pressure of 0.7 kg/cm^2 and at dose of 0.5 ml. 3 replicates were set for each treatment. And then they were maintained in standard observation room. Scores were conducted and mortalities were calculated after 72 hrs.

[9] = system: rice blast; experiment: microbe, parasite or virus in culture; assay type: cell-based; settings: for inhibition at 25 ppm: Pyricularia oryzae, read-out: inhibition rate against rice blast, 25 ppm, in vitro; for inhibition rate against rice blast: in vitro
[10] = Tetranychus cinnabarinus, 72 h, read-out: control against carmine spider mite (mortality)

Row | SMILES | Insecticidal activity against peach aphid (%) ([2]; 100 mg/L) | Insecticidal activity against peach aphid (%) ([2]; 600 mg/L) | control effect against cucumber downy mildew(%) ([3]; 25 mg/L) | control effect against cucumber downy mildew(%) ([3]; 50 mg/L) | control effect against cucumber downy mildew(%) ([3]; 100 mg/L) | control effect against cucumber downy mildew(%) ([3]; 400 mg/L) | Insecticidal activity against diamond back moth (%) ([4]; 600 mg/L) | control effect against wheat powdery mildew (%) ([5]; 400 mg/L) | control effect against wheat powdery mildew (%) ([5]; 6.25 mg/L) | control effect against wheat powdery mildew (%) ([5]; 25 mg/L) | control effect against wheat powdery mildew (%) ([5]; 100 mg/L) | Insecticidal activity against diamond back moth (%) ([4]; 10 mg/L) | Insecticidal activity against diamond back moth (%) ([4]; 100 mg/L) | control against diamond back moth (mortality) ([4]; 600 ppm) | also measured
1 | Cc1nc(C)c(C)c(N(C)Cc2cnn(-c3ccccc3)c2)n1 [CK3, reference compound] | 19% | 77% | 0% | 30% | 40% | 100% | 0% | 0% | – | – | – | – | – | – | control effect against cucumber anthracnose (%) [1]: 0%; Insecticidal activity against peach aphid (%) ([2]; 10 mg/L): 0%
2 | Cc1nc(Cl)cc(N(C)Cc2c(C)nn(-c3ccccc3)c2C)n1 [CK5, reference compound] | 22% | 100% | – | – | – | 85% | 0% | 0% | – | – | – | – | – | – | control effect against cucumber anthracnose (%) [1]: 0%; Insecticidal activity against peach aphid (%) ([2]; 10 mg/L): 0%
3 | CCc1ncnc(NCc2cnn(-c3ccccc3)c2C)c1Cl [CK1, reference compound] | 0% | 91% | 20% | 95% | 100% | 100% | 43% | 100% | 0% | 40% | 60% | – | – | – | Insecticidal activity against peach aphid (%) ([2]; 10 mg/L): 0%
4 | CCc1ncnc(NCCc2cnn(-c3ccc(Cl)cc3)c2)c1Cl [Compound 537] | – | – | 100% | 100% | 100% | 100% | – | – | – | – | – | – | – | – | control effect against cucumber downy mildew(%) ([3]; 12.5 mg/L): 100%; protectant activity against cucumber downy mildew in vivo ([3]; 6.25 ppm): 98%; inhibition at 25 ppm [6]: > 80%
5 | FC(F)c1ncnc(NCCc2cnn(-c3ccc(C(F)(F)F)cc3)c2)c1Cl [Compound 865] | – | – | – | – | – | – | 100% | 100% | 40% | 80% | 85% | 42% | 50% | 100% | –
6 | FC(F)c1ncnc(NCCc2cnn(-c3ccc(Cl)cc3Cl)c2)c1Cl [Compound 817] | 100% | 100% | – | – | – | – | 100% | 100% | 100% | 100% | 100% | 21% | 70% | 100% | protectant activity against corn rust in vivo [7]: 70%; control against carmine spider mite (mortality) ([8]; 10 ppm): 72%
7 | CCc1ncnc(NCCc2cnn(-c3ccc(Cl)cc3)c2)c1Cl.Cl [Compound 10932] | – | – | – | – | – | – | 100% | – | – | – | – | 25% | 50% | 100% | inhibition at 25 ppm [9]: > 80%; mortality at 600 ppm [8, 10]: > 80%
8 | CCc1ncnc(NCCc2cnn(C(C)(C)C)c2)c1Cl [Compound 23] | 94% | 100% | – | – | – | – | – | 100% | – | – | 98% | – | – | – | mortality at 100 ppm ([8]; Tetranychus cinnabarinus, 72 h, 100 ppm, read-out: control against carmine spider mite (mortality)): > 80%; mortality at 600 ppm [8, 10]: > 80%
9 | Cc1nc(C)c(Cl)c(NCCc2cnn(-c3ccc(Cl)cc3Cl)c2)n1 [Compound 1373] | – | – | 100% | 100% | 100% | 100% | – | – | – | – | – | – | – | – | inhibition at 25 ppm [9]: > 80%; control effect against cucumber downy mildew(%) ([3]; 12.5 mg/L): 100%; protectant activity against cucumber downy mildew in vivo ([3]; 3.125 ppm): 85%; protectant activity against cucumber downy mildew in vivo ([3]; 6.25 ppm): 95%; mortality at 600 ppm [8, 10]: > 80%
10 | FC(F)c1ncnc(NCCc2cnn(-c3ccccc3)c2)c1Cl [Compound 797] | – | – | – | – | – | – | 100% | 100% | 60% | 100% | 100% | 65% | 85% | 100% | control against diamond back moth (mortality) ([4]; 100 ppm): 85%
11 | CCc1ncnc(NCc2cnn(-c3ccccc3)c2C(F)(F)F)c1Cl [CK2, reference compound] | 55% | 100% | 20% | 75% | 100% | 100% | 20% | 100% | 0% | 20% | 50% | – | – | – | Insecticidal activity against peach aphid (%) ([2]; 10 mg/L): 0%
12 | Cc1ncnc(NCCc2cnn(-c3ccccc3)c2)c1Cl [Compound 241] | – | – | 100% | 100% | 100% | 100% | 100% | – | – | – | – | 29% | 71% | 100% | inhibition rate against rice blast ([9]; 0.1 ppm): 80%; inhibition rate against rice blast ([9]; 0.3 ppm): 80%; inhibition rate against rice blast ([9]; 0.9 ppm): 100%; control effect against cucumber downy mildew(%) ([3]; 12.5 mg/L): 65%
13 | CCc1ncnc(NCCc2cnn(Cc3ccc(Cl)cc3)c2)c1Cl [Compound 5657] | – | – | – | – | – | – | – | – | – | – | – | – | – | – | inhibition at 25 ppm [9]: > 80%; inhibition at 25 ppm [6]: > 80%; melting point: 109.9 °C
14 | Cc1cc(N(C)Cc2cnn(-c3ccccc3)c2)nc(C(C)C)n1 [CK4, reference compound] | – | 0% | 0% | 40% | 50% | 100% | 0% | 0% | – | – | – | – | – | – | control effect against cucumber anthracnose (%) [1]: 0%
